Test results: US12460245B2, “Luciferase sequences utilizing infrared-emitting substrates to produce enhanced luminescence” (Promega Corporation, priority 2014, dated 2025)
Values joined by “and” are separate entries in the source; they are usually repeats but may differ in a detail not shown here. Equal entries are not always repeated.

Columns and labels:
CBR [1] = assay: Km titration in live HEK293T cells; type: cell-based, click beetle; conditions: 60 min at 37° C.
Method: HEK293T cells were plated at 15,000 cells/well into wells of 96-well white assay plates and grown overnight. A transfection mixture was made containing 13 μg of CBR DNA and 40 μL FuGENE® HD in a total volume of 620 μL OptiMEM. The mixture was incubated at room temperature for 10 min. The cells were then transfected, in triplicate, with 5 μL of transfection complex and grown overnight. […] The growth media from the transfected cells was removed and replaced with one of the 3× serial diluted substrate containing media. The cells were incubated 60 min at 37° C., and the cells were imaged on a ImageQuant CCD imager (FIG. 22).

[2] = biological target: T1, QuantiLum® luciferase (firefly) (Photinus pyralis, UniProt P08659); assay: Spectral scan of near-IR substrates with purified enzyme; type: biochemical; conditions: substrate 1 mM in Bright-Glo Assay buffer + 1 mM ATP
T1 construct: purchased Promega E1701
Method: Materials: The following were used in the Examples: Ultra-Glo™ Luciferase (Promega Cat. No. E140); QuantiLum® Recombinant Luciferase (Promega Cat. No. E1701); Click Beetle Red Luciferase (CBR; 0.5 mg/mL purified; Promega); Bright-Glo™ assay buffer (Promega Cat. No. E264A); PBI-4739 (Promega—See FIG. 1); and PBI-4813 (Promega—See FIG. 1).
Experimental Details. The substrates, PBI-4813 and PBI-4739, were diluted to 1 mM (final concentration) in Bright-Glo™ Assay buffer+1 mM ATP. 50 μL of substrate solution was added to 50 μL of Click Beetle Red, UltraGlo® or QuantiLum® purified enzyme (0.5 mg/mL diluted in DMEM+0.1% Prionex) in triplicate, and then the samples assayed using a Tecan M-1000 plate reader in spectral scan mode.
FIG. 2 provides the spectral data for Click Beetle Red Luciferase with PBI-4813 (A) and PBI-4739 (B), where the spectral maximum was 655 nm for PBI-4813 and 760 nm for PBI-4739. FIG. 3 provides the spectral data for UltraGlo® luciferase with PBI-4813 (A) and PBI-4739 (B), where the spectral maximum was 670 nm for PBI-4813 and 660 nm for PBI-4739. FIG. 4 provides the spectral data for QuantiLum® luciferase (firefly) with PBI-4813 (A) and PBI-4739 (B), where the spectral maximum was 680 nm for PBI-4813 and equal to or greater than 700 nm for PBI-4739.

cells = assay: Cell toxicity studies; type: cell-based; conditions: compared to D-luciferin
[3] = Solubility of the substrates; type: physicochemical; conditions: PBI-4739 compared with PBI-4813
ATG1240 = assay: Km titration in HEK293 cell lysates; type: biochemical, click beetle
Method: (§1) Some of the variants identified in Examples 2 and 3 were screened for their performance in mammalian cells. DNA was prepared by Plasmid.com. HEK293 and HeLa cells were plated into wells of a 24-well plate at 0.05×10^6 cells/mL and grown overnight at 37° C. with CO2. 2.2 μg variant DNA was mixed with 80 μL OptiMEM and 6.6 μL FuGENE® HD transfection reagent (Promega Corporation) and incubated at room temperature for 5 min. 25 μL of the DNA mixture was added to each well. After overnight incubation, the media was removed from the cells and 1 mL DPBS (Life Technologies) was added. […] Luminescence of the variants was normalized to the average of two CBR samples (FIG. 6 and FIG. 7). C. Km Titration. Cell lysates of ATG 1230 and ATG 1240 expressed in HEK293 cells were prepared as described in Example 4. The cell lysates were then diluted 1:10 in 0.3×PLB+0.1% Prionex. Dilutions (2×) of each substrate (PBI-4813 or PBI-4739) were prepared in Bright-Glo™ Assay buffer containing 1 mM ATP. 50 μL of diluted cell lysate was assayed with 50 μL of each substrate assay solution. Luminescence was detected on the GloMax® Discover (FIG. 12). […] Because the enzyme concentration is not known for the lysates of for live cell titrations, Vmax as expressed as a velocity is not possible. Instead, the relative Vmax calculates the maximum brightness for each lysate with different substrates.

CBR [4] = assay: Km titration in HEK293 cell lysates; type: biochemical, click beetle
Method: as §1

CBR [5] = assay: Km titration in live HeLa cells; type: cell-based, click beetle; conditions: 60 min at 37° C.
Method: HeLa cells were plated at 20,000 cells/well into wells of 96-well white assay plates and grown overnight. A transfection mixture was made containing 13 μg of CBR DNA and 40 μL FuGENE® HD in a total volume of 620 μL OptiMEM. The mixture was incubated at room temperature for 10 min. The cells were then transfected, in triplicate, with 5 μL of transfection complex and grown overnight. […] The growth media from the transfected cells was removed and replaced with one of the 3× serial diluted substrate containing media. The cells were incubated for 60 min at 37° C. Luminescence was detected on a GloMax®-Multi+luminometer (FIG. 21A and FIG. 21B).

ATG 1240 = assay: Mimicry of tissue attenuation using long pass filters, transfected HEK293T cells; type: cell-based, click beetle; conditions: HEK293T cells expressing ATG 1240; long pass filters
Method: A transfection complex was prepared by diluting ATG 1240 DNA or Luc2 DNA (pF4Ag-Luc2) to 100 ng/μL, and then 2× serial dilutions prepared in 50 ng/μL pGEM carrier DNA. 40 μL of the diluted DNA was the mixed with 160 μL phenol red free OptiMEM and 16 μL of FuGENE® HD and incubated for 20 min. 5 μL of each transfection complex was added to wells of a 96-well black assay plates and then 100 μL of diluted HEK293T cells (200,000/mL in DMEM+10% FBS) was added. The cells were grown overnight at 37° C. with CO2.
To assay the cells, 4 mM D-luciferin, 2 mM PBI-4813 and 2 mM PBI-4739 substrate solutions were prepared in DMEM+10% FBS. 100 μL of the D-luciferin solution was added to cells expressing Luc2 and ATG 1240, and 100 μL of PBI-4813 or PBI-4739 solution was added to ATG 1240 expressing cells. Samples were incubated for 10 min at 37° C., and luminescence detected on GloMax® Discover (heated to 37° C.) with no filter, 610 nm Long Pass (LP) filter, 665 nm LP filter, 695 nm LP filter, 720 nm LP filter or 760 nm LP filter.

[6] = Km in live cell (remark in Example 13); type: cell-based; conditions: enzyme not stated
[7] = Substrate inhibition of luciferase activity at high substrate concentration; type: biochemical
[8] = tested on: Click Beetle Red (CBR) mutant(s); assay: Light emission from Click Beetle Red mutant(s) with the red-shifted substrates; type: biochemical; conditions: PBI-4813 compared with PBI-4739
[9] = Luminescence of ATG 1230 and ATG 1240 cell lysates, GloMax Discover with red-sensitive PMT; type: biochemical
Method: 2. Cell lysates were prepared from cells containing the variants listed in Table 3 by diluting 100 μL of induced culture with 100 μL of lysis buffer (0.3×PLB, 0.006U RQ DNAse1) using a Tecan liquid handling robot. 50 μL of each cell lysate was assayed with either PBI-4813 or PBI-4739 (20 μM in Bright-Glo™ assay buffer containing 1 mM ATP), and luminescence detected on an ImageQuant CCD imager. Luminescence of the variants was normalized to CBR luciferase (FIG. 8).
Variant clones identified as ATG 1230 (CBR+389F+444R+251S) and ATG 1240 (CBR+334S+351R) were further evaluated for their luminescence, spectral property, Km and live cell kinetics with either PBI-4813 or PBI-4739. These variants were cloned and expressed as described in Example 2 except the template was pF4Ag-CBR, i.e., no HALOTAG®.
A. Luminescence with PBI-4813 and PBI-4739. Cell lysates of these variant clones were prepared and assayed for luminescence as described in Example 6. Luminescence was detected on a GloMax® Discover equipped with a red-sensitive photomultiplier tube (PMT) and compared to CBR luciferase (Table 5 and FIG. 10).

[10] = Km titration of ATG 1240 compared with CBR in live HEK293T cells; type: cell-based; conditions: 60 min at 37° C.
Method: HEK293T cells were plated at 15,000 cells/well into wells of 96-well white assay plates and grown overnight. A transfection mixture was made containing 6.6 μg of CBR or ATG-1240 DNA and 20 μL FuGENE® HD in a total volume of 310 μL OptiMEM. The mixture was incubated at room temperature for 10 min. The cells were then transfected, in triplicate, with 5 μL of transfection complex and grown overnight.
The transfected cells were then assayed. 2× serial dilutions of PBI-4813 and PBI-4739 starting at 2 mM in CO2 independent media+0.5% FBS were prepared. The growth media from the transfected cells was removed and replaced with one of the serial diluted substrate containing media. The cells were incubated 60 min at 37° C., and luminescence detected on a modified GloMax® Discover luminometer containing a red shifted PMT (see FIG. 23A and FIG. 23B). The Km of ATG 1240 was about 5 times higher than the Km of CBR with PBI-4813. The Km of ATG 1240 was about 3 times higher than the Km of CBR with PBI-4739.

[11] = Secondary library screen using ATG 1240 as template, lysate luminescence; type: biochemical; conditions: ATG 1240 template (WT = ATG-1240)
Method: A random clone library was prepared as described in Example 2 using ATG 1240 as a template. The variants were then cloned into pF4Ag (no HT7). The library was screened as follows (50 plates total):
i. Primary Screen. Cells were grown as described in Example 2. Cell lysates were prepared by diluting 100 μL of induced culture with 100 μL of lysis buffer (0.3×PLB+0.006U RQDNAse1) using a Tecan liquid handling robot. 50 μL of each cell lysate was then assayed with either PBI-4813 or PBI-4739. (20 μM substrate in Bright-Glo™ assay buffer containing 1 mM ATP). Luminescence was detected on a GloMax® Discover.
ii. Secondary Screen. Cells from each hit in the primary screen were streaked onto new plates and grown overnight. Colonies were picked in quadruplicate and cultures were grown as described in Example 2. 50 μL of each cell lysate was assayed with 50 μL of BrightGlo™ assay buffer containing 1 mM ATP and 30 μM PBI-4813 or 50 μM PBI-4739. Luminescence was detected on a GloMax® Discover Multimode Detection System (Table 6). The variants in this library were identified as having on average between 2-3 mutations per gene.

T1 sequence (P08659 whole entry): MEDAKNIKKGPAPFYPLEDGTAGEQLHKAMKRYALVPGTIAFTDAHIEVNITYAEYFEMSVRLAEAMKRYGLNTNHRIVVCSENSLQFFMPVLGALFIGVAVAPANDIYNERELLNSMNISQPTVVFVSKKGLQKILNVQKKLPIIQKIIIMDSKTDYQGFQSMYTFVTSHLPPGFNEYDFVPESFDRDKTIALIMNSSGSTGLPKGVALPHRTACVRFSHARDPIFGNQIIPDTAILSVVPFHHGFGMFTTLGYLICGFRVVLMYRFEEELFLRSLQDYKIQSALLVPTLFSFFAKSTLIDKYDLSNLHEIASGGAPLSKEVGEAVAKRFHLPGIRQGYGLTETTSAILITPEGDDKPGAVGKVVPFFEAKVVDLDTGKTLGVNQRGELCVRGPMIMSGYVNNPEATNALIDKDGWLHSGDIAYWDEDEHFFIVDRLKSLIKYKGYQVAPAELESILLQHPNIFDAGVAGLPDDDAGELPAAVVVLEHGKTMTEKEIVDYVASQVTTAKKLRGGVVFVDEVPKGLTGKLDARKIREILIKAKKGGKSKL

inhibition of luciferase activity by PBI-4813 ([7]; PBI-4813 at concentrations greater than ten times the Km)	Molecule	Km for CBR, lower relative to D-luciferin (CBR [1])	spectral maximum with QuantiLum® luciferase (firefly) [2]	cell toxicity (cells)	solubility [3]	Km with ATG1240, lower than CBR with D-luciferin (ATG1240)	Km with CBR in the lysates, lower than CBR with D-luciferin (CBR [4])	Km for CBR in live cells, lower than the Km for D-luciferin (CBR [5])	luminescence of ATG 1240 at the greatest light attenuation (ATG 1240)	Km less than for D-luciferin in live cell [6]	substrate inhibition by the substrate [7]	brightness of light emission [8]	Luminescence, PBI-4739 ([9]; cell lysate, 20 μM PBI-4739)	Luminescence, PBI 4813 ([9]; cell lysate, 20 μM PBI-4813, GloMax Discover red-sensitive PMT)	PBI-4813/PBI-4739 ([9]; ratio of luminescence with the two substrates)	Km higher than the Km of CBR with PBI-4739 [10]	Km higher than the Km of CBR with PBI-4813 [10]	Luminescence, secondary screen, PBI-4813 ([11]; 30 μM PBI-4813, 1 mM ATP)	Luminescence, secondary screen, PBI-4739 ([11]; 50 μM PBI-4739, 1 mM ATP)
–	O=C(O)C1CSC(c2nc3ccc4cc(O)ccc4c3s2)=N1 (stereo not shown) [PBI-4739]	about 5 times	≥ 700 nm	comparable non-toxicity to D-luciferin	less soluble	–	–	–	–	–	–	–	–	–	–	–	–	–	–
–	Nc1ccc2c(ccc3nc(C4=NC(C(=O)O)CS4)sc32)c1 (stereo not shown) [PBI-4813]	about 23 times	680 nm	comparable non-toxicity to D-luciferin	–	about 5 ×	about 30 ×	about 20 times	comparable	more than 10 times	possible substrate inhibition	brighter	–	–	–	–	–	–	–
does not show this inhibition	ATG 1240: CBR variant R334S and G351R (SEQ ID NO: 2) (protein) MVKREKNVIYGPEPLHPLEDLTAGEMLFRALRKHSHLPQALVDVVGDESLSYKEFFEATVLLAQSLHNCGYKMNDVVSICAENNTRFFIPVIAAWYIGMIVAPVNESYIPDELCKVMGISKPQIVFTTKNILNKVLEVQSRTNFIKRIIILDTVENIHGCESLPNFISRYSDGNIANFKPLHFDPVEQVAAILCSSGTTGLPKGVMQTHQNICVRLIHALDPRYGTQLIPGVTVLVYLPFFHAFGFHITLGYFMVGLRVIMFRRFDQEAFLKAIQDYEVRSVINVPSVILFLSKSPLVDKYDLSSLRELCCGAAPLAKEVAEVAAKRLNLPGISCGFGLTESTSAIIQTLRDEFKSGSLGRVTPLMAAKIADRETGKALGPNQVGELCIKGPMVSKGYVNNVEATKEAIDDDGWLHSGDFGYYDEDEHFYVVDRYKELIKYKGSQVAPAELEEILLKNPCIRDVAVVGIPDLEAGELPSAFVVKQPGTEITAKEVYDYLAERVSHTKYLRGGVRFVDSIPRNVTGKITRKELLKQLLVKAGGV	–	–	–	–	–	–	–	–	–	–	–	37,169	71,299	1.9	about 3 times	about 5 times	1.2 and 1.01 and 1.0 and 0.9 and 1.02 and 0.97	1.1 and 1.05 and 1.0 and 0.99 and 0.97 and 0.9
